In US20250381206A1, “INVARIANT NATURAL KILLER T-CELL ACTIVATORS” (Deciduous Therapeutics, Inc., priority 2022, published 2025):

What was measured:
human iTCR = target: T1, human iTCR (Homo sapiens, UniProt P15813); assay: In vitro activation of human iTCR through a Jurkat reporter cell line (JiNKT, GFP under NFKB promoter) co-cultured with compound-loaded BWSTIM cells; type: cell-based; conditions: percentage of JiNKT cells expressing high levels of GFP by flow cytometry; BWSTIM loaded 4 hours, co-cultured 18 to 24 hours
T1 sequence (P15813 1-335): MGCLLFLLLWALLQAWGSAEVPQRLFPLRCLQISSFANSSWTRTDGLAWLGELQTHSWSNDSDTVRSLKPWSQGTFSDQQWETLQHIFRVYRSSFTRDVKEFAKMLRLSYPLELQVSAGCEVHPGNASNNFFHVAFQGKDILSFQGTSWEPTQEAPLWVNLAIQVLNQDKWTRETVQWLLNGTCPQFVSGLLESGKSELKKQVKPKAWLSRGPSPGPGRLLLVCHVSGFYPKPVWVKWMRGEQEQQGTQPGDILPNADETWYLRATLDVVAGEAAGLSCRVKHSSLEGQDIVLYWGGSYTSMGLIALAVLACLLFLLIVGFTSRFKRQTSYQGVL
Excerpt: To determine the human iTCR activation potential induced by the compounds described herein, a Jurkat cell line (JiNKT) was transfected with the human iTCR, and GFP under the NFKB promoter (cell line licensed from the Medical University of Vienna). A BWS147 cell line (BWSTIM) was also transfected with CD80 and CD1d to act as the antigen-presenting cell.
Any of the compounds provided herein may be used in this example, including the exemplary compounds of Tables 1 and 2. Test compounds were dissolved in DMSO at a 5 mg/mL stock solution. BWSTIM cells were loaded with test compounds at varying concentrations for 4 hours at 37° C. at a concentration of 20k cells/well in 200 μL of media in a u-bottom 96 well dish. BWSTIM cells were washed 2× with media, then incubated with JiNKT cells at a concentration of 80k cells/well in a u-bottom 96 well dish. Cells were co-cultured for 18 to 24 hours. The percentage of cells expressing high levels of GFP was measured through flow cytometry (after gating out the mCD45+ BWSTIM cells).

C57BL/6J mice = assay: In vivo IFNγ activation and iNKT cell expansion in C57BL/6J mice; design: species or system mouse; conditions: 2 μg I.P.; for Naïve Mouse In Vivo IFNγ: average serum IFNγ by ELISA, twenty hours post-injection, eight weeks old C57BL/6J mice; for Naïve Mouse In Vivo CD3 + iNKT + cells (Fold increase over veh control): iNKT cells within splenocytes by flow cytometry, four days post-injection, C57BL/6J mice
Procedure: Any of the compounds provided herein may be used in this example, including the exemplary compounds of Tables 1 and 2. To determine the expansion induced by the compounds described herein, test compounds were injected into C57BL/6J mice. Serum IFNγ levels and the expansion of iNKT cells within splenocytes was measured 4 days post-IP injection.
Eight weeks old C57BL/6J mice were injected (I.P.) with 2 μg of test compounds. The test compounds were either dissolved in DMSO at a 5 mg/mL stock solution, or formulated into liposomes through thin-film rehydration, then extrusion through 200 nm filters. Liposome-based formulations were constructed using soy phosphatidylcholine, cholesterol, and test compound in a 2:1:0.15 ratio. Twenty hours post-injection, blood was collected from the tail to measure the level of serum IFNγ using an ELISA kit from Biolegend. Four days post-injection, the mice were sacrificed and the splenocytes were isolated. The percentage of iNKT cells within the spleens was measured using flow cytometry, selecting for live cells and mouse CD1d-α-GalCer tetramer+ cells.
In response to injection of several exemplary compounds, the average serum IFNγ collected and fold change of cells are shown in Table B4 below.

Row | EC50 (human iTCR) [nM] | SMILES | Naïve Mouse In Vivo IFNγ (C57BL/6J mice) [pg/mL] | Naïve Mouse In Vivo CD3 + iNKT + cells (Fold increase over veh control) (C57BL/6J mice)
1 | 1780 | CCCCCCCCCCCCCCC[C@@H](O)[C@H](CO[C@H]1O[C@H](CO)[C@H](O)[C@H](O)[C@H]1O)NC(=O)CCCCCCCCCCCCCCCCCCCCCCCC12CC(F)(C1)C2 [Compound I-2, 24-(3-fluorobicyclo[1.1.1]pentan-1-yl)-N-((2S,3R)-3-hydroxy-1-(((2S,3R,4S,5R,6R)-3,4,5-trihydroxy-6-(hydroxymethyl)tetrahydro-2H-pyran-2-yl)oxy)octadecan-2-yl)tetracosanamide] | 8128 ± 1209 | 2.21 ± 0.38 Fold increase over veh control
2 | 908 | CCCCCCCCCCCCCC[C@@H](O)[C@@H](O)[C@H](CO[C@H]1O[C@H](COC(=O)CCc2ccccc2)[C@H](O)[C@H](O)[C@H]1O)NC(=O)CCCCCCCCCCCCCCCCCCCCCCCC12CC(F)(C1)C2 [Compound I-3, ((2R,3R,4S,5R,6S)-6-(((2S,3S,4R)-2-(24-(3-fluorobicyclo[1.1.1]pentan-1-yl)tetracosanamido)-3,4-dihydroxyoctadecyl)oxy)-3,4,5-trihydroxytetrahydro-2H-pyran-2-yl)methyl 3-phenylpropanoate] | 8506 ± 790 | 1.12 ± 0.19 Fold increase over veh control
3 | 621 | CCCCCCCCCCCCCCC[C@@H](O)[C@H](CC[C@H]1O[C@H](COC(=O)CCc2ccccc2)[C@H](O)[C@H](O)[C@H]1O)NC(=O)CCCCCCCCCCCCCCCCCCCCCCCC12CC(F)(C1)C2 [Compound I-4, ((2R,3R,4R,5R,6R)-6-((3S,4R)-3-(24-(3-fluorobicyclo[1.1.1]pentan-1-yl)tetracosanamido)-4-hydroxynonadecyl)-3,4,5-trihydroxytetrahydro-2H-pyran-2-yl)methyl 3-phenylpropanoate] | 28208 ± 4723 | 4.09 ± 0.78 Fold increase over veh control
4 | 797 | CCCCCCCCCCCCCCC[C@@H](O)[C@H](CO[C@H]1O[C@H](COC(=O)CCc2ccccc2)[C@H](O)[C@H](O)[C@H]1O)NC(=O)CCCCCCCCCCCCCCCCCCCCCCCC1CCS(=O)(=O)CC1 [Compound I-6, ((2R,3R,4S,5R,6S)-6-(((2S,3R)-2-(24-(1,1-dioxidotetrahydro-2H-thiopyran-4-yl)tetracosanamido)-3-hydroxyoctadecyl)oxy)-3,4,5-trihydroxytetrahydro-2H-pyran-2-yl)methyl 3-phenylpropanoate] | 43930 ± 43396 | 1.89 ± 0.44 Fold increase over veh control
5 | 1180 | CCCCCCCCCCCCCC[C@@H](O)[C@@H](O)[C@H](CC[C@H]1O[C@H](CO)[C@H](O)[C@H](O)[C@H]1O)NC(=O)CCCCCCCCCCCCCCCCCCCCCCCC12CC(F)(C1)C2 [Compound I-7, N-((3S,4S,5R)-4,5-dihydroxy-1-((2R,3R,4R,5R,6R)-3,4,5-trihydroxy-6-(hydroxymethyl)tetrahydro-2H-pyran-2-yl)nonadecan-3-yl)-24-(3-fluorobicyclo[1.1.1]pentan-1-yl)tetracosanamide] | – | –
